In BindingDB's records for patent US20240352053 (Betta Pharmaceuticals, 2024):

Assays:
Experiment in all cases: Kinase Inhibition Assay
[1] = biological target: Epidermal growth factor receptor (Homo sapiens, UniProt P00533)
Experimental: (§1) Mobility shift assays were performed to determine the compound's inhibitory activity against EGFR delta19del/T790M/C797S, EGFR WT, and IGF1R kinases. The enzyme reaction scheme is as follows: 1. Prepare 1*kinase buffer as follows. Final 1* Kinase buffer concentration HEPES PH 7.5 (mM) 50 Brij-35 0.0150% DTT (mM) 2 Mgcl2, Mncl2 (mM) 10 2. Preparation of compound concentration gradient: The starting concentration of the test compound is 3000 nM or 100 nM, dilute it in the 384-source plate to a 100% DMSO solution of 100 times the final concentration, and use precision to dilute the compound 3 times to 10 concentrations. Use the Dispenser Echo 550 to transfer 250 nL of 100x the final concentration of compound to the destination plate OptiPlate-384F. 3. Prepare a kinase solution with 2.5 times the final concentration using 1x Kinase buffer. 4. Add 10 uL of 2.5 times the final concentration of kinase solution to the compound wells and positive control wells respectively; add 10 uL of 1x Kinase buffer to the negative control wells. 5. Centrifuge at 1000 rpm for 30 seconds, shake and mix the reaction plate and incubate at room temperature for 10 minutes. 6. Use 1x Kinase buffer to prepare a mixed solution of ATP and Kinase substrate at 5/3 times the final concentration. 7. Add 15 uL of a mixed solution of ATP and substrate at 5/3 times the final concentration to start the reaction. 8. Centrifuge the 384-well plate at 1000 rpm for 30 seconds, mix well by shaking, and incubate at room temperature for the corresponding time. 9. Add 30 uL of stop detection solution to stop the kinase reaction, centrifuge at 1000 rpm for 30 seconds, and shake to mix. 10. Use Caliper EZ Reader to read conversion rates. 11. Calculation formula

[2] = biological target: T1, Epidermal growth factor receptor [1-18,20-1210,T790M,C797S] (Human, UniProt P00533, T790M/C797S)
T1 construct: 1-18,20-1210
Experimental: as §1

[3] = biological target: Insulin-like growth factor 1 receptor (Homo sapiens, UniProt P08069)
Experimental: as §1

Insulin-like growth factor 1 receptor, sequence (P08069 31-736 limits assumed): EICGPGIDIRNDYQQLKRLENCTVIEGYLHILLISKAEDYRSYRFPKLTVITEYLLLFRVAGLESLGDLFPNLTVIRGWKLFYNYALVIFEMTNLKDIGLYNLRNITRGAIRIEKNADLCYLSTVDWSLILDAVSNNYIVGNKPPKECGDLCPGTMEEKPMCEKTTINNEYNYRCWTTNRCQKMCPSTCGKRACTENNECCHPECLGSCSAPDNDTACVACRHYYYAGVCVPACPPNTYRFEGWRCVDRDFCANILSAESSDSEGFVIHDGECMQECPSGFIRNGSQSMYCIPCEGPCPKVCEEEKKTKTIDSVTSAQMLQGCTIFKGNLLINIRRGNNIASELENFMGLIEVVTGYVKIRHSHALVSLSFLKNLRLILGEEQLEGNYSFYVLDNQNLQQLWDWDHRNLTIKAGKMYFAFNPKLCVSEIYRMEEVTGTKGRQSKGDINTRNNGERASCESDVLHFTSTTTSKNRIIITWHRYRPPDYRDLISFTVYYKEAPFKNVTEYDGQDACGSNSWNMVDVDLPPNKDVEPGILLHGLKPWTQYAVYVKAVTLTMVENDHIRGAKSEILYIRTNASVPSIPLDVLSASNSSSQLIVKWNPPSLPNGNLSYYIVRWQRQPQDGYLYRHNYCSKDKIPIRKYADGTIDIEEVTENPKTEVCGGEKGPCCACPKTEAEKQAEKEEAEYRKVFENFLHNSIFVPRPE
Insulin-like growth factor 1 receptor, sequence (P08069 741-1367 limits assumed): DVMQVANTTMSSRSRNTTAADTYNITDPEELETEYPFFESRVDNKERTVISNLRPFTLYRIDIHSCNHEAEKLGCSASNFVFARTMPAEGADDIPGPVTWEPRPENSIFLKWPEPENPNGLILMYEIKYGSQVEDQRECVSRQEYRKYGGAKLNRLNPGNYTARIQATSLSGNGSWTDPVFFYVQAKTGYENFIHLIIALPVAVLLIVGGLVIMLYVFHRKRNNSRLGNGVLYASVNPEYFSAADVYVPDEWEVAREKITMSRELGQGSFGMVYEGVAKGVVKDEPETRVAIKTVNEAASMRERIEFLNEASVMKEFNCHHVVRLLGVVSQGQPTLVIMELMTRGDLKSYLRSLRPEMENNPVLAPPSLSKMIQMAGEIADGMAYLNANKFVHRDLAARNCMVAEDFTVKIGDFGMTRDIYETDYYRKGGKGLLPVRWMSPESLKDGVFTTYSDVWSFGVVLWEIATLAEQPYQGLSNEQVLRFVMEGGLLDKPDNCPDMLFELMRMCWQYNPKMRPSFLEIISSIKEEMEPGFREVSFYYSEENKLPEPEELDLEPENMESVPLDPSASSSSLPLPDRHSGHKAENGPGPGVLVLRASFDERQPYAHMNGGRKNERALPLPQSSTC
Epidermal growth factor receptor, sequence (P00533 whole entry): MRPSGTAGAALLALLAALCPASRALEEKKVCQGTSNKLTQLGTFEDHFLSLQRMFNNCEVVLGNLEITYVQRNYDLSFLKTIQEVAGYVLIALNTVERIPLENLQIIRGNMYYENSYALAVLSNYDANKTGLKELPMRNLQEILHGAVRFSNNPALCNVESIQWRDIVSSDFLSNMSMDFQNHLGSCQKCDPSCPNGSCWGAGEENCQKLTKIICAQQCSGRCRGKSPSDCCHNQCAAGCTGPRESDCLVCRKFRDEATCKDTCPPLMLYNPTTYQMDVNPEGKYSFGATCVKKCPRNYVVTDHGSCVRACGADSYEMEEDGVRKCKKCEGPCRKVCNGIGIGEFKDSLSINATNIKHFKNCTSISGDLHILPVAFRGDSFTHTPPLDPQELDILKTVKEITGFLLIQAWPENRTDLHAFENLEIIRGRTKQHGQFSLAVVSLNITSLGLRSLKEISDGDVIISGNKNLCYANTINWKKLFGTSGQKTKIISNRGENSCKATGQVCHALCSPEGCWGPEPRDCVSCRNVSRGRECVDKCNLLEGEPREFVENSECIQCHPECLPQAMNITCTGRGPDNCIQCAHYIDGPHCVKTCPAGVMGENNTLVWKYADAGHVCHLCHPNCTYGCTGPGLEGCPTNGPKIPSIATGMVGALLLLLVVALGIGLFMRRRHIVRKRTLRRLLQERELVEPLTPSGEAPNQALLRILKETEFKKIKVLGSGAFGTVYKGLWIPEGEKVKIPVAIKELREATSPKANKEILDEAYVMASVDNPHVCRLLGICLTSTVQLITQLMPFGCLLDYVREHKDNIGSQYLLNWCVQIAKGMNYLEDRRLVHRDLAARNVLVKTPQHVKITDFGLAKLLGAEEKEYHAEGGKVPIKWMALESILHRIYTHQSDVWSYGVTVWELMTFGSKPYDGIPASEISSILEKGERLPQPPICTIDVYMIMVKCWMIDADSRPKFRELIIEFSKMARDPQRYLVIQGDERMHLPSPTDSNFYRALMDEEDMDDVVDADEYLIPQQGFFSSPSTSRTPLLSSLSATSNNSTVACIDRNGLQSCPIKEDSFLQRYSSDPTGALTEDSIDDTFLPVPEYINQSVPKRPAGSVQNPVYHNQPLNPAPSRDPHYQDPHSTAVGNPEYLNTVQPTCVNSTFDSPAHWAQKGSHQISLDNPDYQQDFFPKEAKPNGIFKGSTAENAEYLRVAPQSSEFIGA

Structure (SMILES)	IC50 [1]	IC50 [2]	IC50 [3]
CCc1cc(Nc2ncc(Br)c(Nc3ccc4ncccc4c3P(C)(C)=O)n2)c(OC)cc1N1CCC(N2CCN(C)CC2)CC1 [US20240352053, Compound Control Example 1]	5.1 nM	0.2 nM	9.5 nM
COc1cc(N2CCC(N3CCN(C)CC3)CC2)c(C)cc1Nc1ncc(Br)c(Nc2ccc3nc(C4CC4)ccc3c2P(C)(C)=O)n1 [US20240352053, Compound Formula I]		0.3 nM	
